Test results as given in US20250195521A1 (Revolution Medicines, Inc., priority 2020, published 2025).
Read-outs that look alike come from different tables or passages of the source.

What was measured:
[1] = system: K-Ras G12C (NCI-H358 cells); test: Potency assay: pERK in NCI-H358 cells; assay type: cell-based, human; conditions: Homo sapiens; NCI-H358 cells, 4 hours; read-out: pERK EC50 (H358 KRAS G12C)
How it was run: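 Cells plated the day before were exposed for 4 h at 37° C, 5% CO2 to a 10-point, 3-fold DMSO dilution series (10 mM top stock), in duplicate. Phospho-ERK was read by AlphaLISA SureFire Ultra or by In-Cell Western with DRAQ5 DNA stain, and IC50 came from a 4-parameter sigmoidal fit.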

[2] = system: Capan-1 cells (K-Ras G12V); test: CellTiter-Glo cell viability, Capan-1; assay type: cell-based, human; conditions: Homo sapiens, CAPAN-1, 120 h, read-out: Capan-1 Cell Viability IC50
How it was run: (§1)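 Endpoint: CellTiter-Glo luminescence on day 5, following ~30 min at room temperature. Data as (sample/mean DMSO)×100, four-parameter logistic fit.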

[3] = target: NRAS Q61R (Homo sapiens (Human), UniProt P01111+P62937, Q61R); test: Ras-Raf disruption/FRET/MOA assay (BRAF RBD, Cyclophilin A); assay type: biochemical
How it was run: (§2)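 Ras-GMPPNP (12.5 nM), BRAF RBD (50 nM) and 25 μM Cyclophilin A were incubated with compound for 3 h at 25° C, then detected 1.5 h with anti-His Eu and anti-GST APC; IC50 values follow from the reduced TR-FRET ratio.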

[4] = target: KRAS Q61H (Homo sapiens (Human), UniProt P01116+P62937, Q61H); test: as above; assay type: biochemical
How it was run: (§3)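 TR-FRET readout: anti-His Eu-W1024 (10 nM) and anti-GST allophycocyanin (50 nM) added after 3 h, 25° C compound incubation, then 1.5 h more. Decrease in FRET ratio versus DMSO wells marks Ras:RAF disruption; IC50 reported.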

[5] = target: KRAS G12S (Homo sapiens (Human), UniProt P01116+P62937, G12S); test: as above; assay type: biochemical; conditions: read-out: KRAS G12S FRET IC50
How it was run: as §3

[6] = target: KRAS G12C (Homo sapiens (Human), UniProt P01116+P62937, G12C); test: as above; assay type: biochemical; conditions: read-out: KRAS G12C FRET IC50
How it was run: as §3

[7] = target: KRAS G12V (Homo sapiens (Human), UniProt P01116+P62937, G12V); test: as above; assay type: biochemical; conditions: read-out: KRAS G12V FRET IC50
How it was run: as §3

[8] = target: KRAS G12D (Homo sapiens (Human), UniProt P01116+P62937, G12D); test: as above; assay type: biochemical; conditions: read-out: KRAS G12D FRET IC50
How it was run: as §3

[9] = target: KRAS WT (Homo sapiens (Human), UniProt P01116+P62937); test: as above; assay type: biochemical; conditions: read-out: KRAS WT FRET data IC50
How it was run: as §3

[10] = target: KRAS G13C (Homo sapiens (Human), UniProt P01116+P62937, G13C); test: as above; assay type: biochemical; conditions: read-out: KRAS G13C FRET IC50
How it was run: as §3

[11] = target: KRAS G13D (Homo sapiens (Human), UniProt P01116+P62937, G13D); test: as above; assay type: biochemical; conditions: read-out: KRAS G13D FRET data IC50
How it was run: as §3

[12] = target: NRAS WT (Homo sapiens (Human), UniProt P01111+P62937); test: as above; assay type: biochemical
How it was run: as §2

[13] = target: NRAS G12C (Homo sapiens (Human), UniProt P01111+P62937, G12C); test: as above; assay type: biochemical; conditions: read-out: NRAS G12C FRET data IC50
How it was run: as §2

[14] = system: NCI-H358 cells (K-Ras G12C); test: CellTiter-Glo cell viability, NCI-H358; assay type: cell-based, human; conditions: Homo sapiens, NCI-H358, 120 h, read-out: H358 Cell Viability IC50
How it was run: as §1

KRAS G12S, sequence (P01116 other isoform, or with tags, fused parts or gaps G12S): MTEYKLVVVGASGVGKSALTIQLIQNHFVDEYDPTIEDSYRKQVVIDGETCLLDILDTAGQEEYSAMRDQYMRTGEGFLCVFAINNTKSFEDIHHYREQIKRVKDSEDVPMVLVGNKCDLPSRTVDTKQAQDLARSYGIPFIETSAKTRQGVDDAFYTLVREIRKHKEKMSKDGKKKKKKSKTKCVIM
KRAS G12S, sequence (P62937 whole entry): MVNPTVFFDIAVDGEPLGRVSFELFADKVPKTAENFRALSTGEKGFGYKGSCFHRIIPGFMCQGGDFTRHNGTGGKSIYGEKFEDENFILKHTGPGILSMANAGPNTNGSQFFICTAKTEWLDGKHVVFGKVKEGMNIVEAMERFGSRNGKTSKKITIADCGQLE
KRAS WT, sequence (P01116 other isoform, or with tags, fused parts or gaps): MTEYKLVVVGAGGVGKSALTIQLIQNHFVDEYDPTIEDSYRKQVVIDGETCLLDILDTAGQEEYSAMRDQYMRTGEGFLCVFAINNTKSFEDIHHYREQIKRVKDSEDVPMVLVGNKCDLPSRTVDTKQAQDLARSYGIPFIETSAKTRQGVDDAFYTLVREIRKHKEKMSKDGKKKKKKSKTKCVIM
KRAS WT, sequence (P62937 whole entry): as the sequence (P62937 whole entry) above
NRAS WT, sequence (P01111 whole entry): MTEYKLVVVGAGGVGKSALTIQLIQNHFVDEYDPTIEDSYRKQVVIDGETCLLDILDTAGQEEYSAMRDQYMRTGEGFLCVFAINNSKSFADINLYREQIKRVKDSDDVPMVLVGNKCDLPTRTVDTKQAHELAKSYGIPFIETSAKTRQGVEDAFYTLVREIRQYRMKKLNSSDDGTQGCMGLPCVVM
NRAS WT, sequence (P62937 whole entry): as the sequence (P62937 whole entry) above
NRAS G12C, sequence (P01111 whole entry G12C): as the sequence (P01111 whole entry) above, with G12C counted along it
NRAS G12C, sequence (P62937 whole entry): as the sequence (P62937 whole entry) above
NRAS Q61R, sequence (P01111 whole entry Q61R): as the sequence (P01111 whole entry) above, with Q61R counted along it
NRAS Q61R, sequence (P62937 whole entry): as the sequence (P62937 whole entry) above
KRAS G12C, sequence (P01116-2 other isoform, or with tags, fused parts or gaps G12C): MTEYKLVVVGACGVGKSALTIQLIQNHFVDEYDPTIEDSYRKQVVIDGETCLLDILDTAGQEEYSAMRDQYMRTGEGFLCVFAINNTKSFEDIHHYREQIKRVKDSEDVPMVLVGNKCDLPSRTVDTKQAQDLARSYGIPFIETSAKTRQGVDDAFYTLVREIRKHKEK
KRAS G12C, sequence (P62937 whole entry): as the sequence (P62937 whole entry) above
KRAS Q61H, sequence (P01116 other isoform, or with tags, fused parts or gaps Q61H): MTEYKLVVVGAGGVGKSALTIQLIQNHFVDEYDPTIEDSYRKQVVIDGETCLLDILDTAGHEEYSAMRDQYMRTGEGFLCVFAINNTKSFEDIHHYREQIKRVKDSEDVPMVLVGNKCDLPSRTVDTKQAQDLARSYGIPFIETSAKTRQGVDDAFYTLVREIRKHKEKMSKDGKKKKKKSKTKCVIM
KRAS Q61H, sequence (P62937 whole entry): as the sequence (P62937 whole entry) above
KRAS G13C, sequence (P01116 other isoform, or with tags, fused parts or gaps G13C): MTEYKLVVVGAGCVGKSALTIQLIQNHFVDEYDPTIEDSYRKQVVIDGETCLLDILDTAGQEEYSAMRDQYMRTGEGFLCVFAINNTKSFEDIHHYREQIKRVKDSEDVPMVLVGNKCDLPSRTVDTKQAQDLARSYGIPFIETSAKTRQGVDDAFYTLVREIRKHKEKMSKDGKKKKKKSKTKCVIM
KRAS G13C, sequence (P62937 whole entry): as the sequence (P62937 whole entry) above
KRAS G13D, sequence (P01116 other isoform, or with tags, fused parts or gaps G13D): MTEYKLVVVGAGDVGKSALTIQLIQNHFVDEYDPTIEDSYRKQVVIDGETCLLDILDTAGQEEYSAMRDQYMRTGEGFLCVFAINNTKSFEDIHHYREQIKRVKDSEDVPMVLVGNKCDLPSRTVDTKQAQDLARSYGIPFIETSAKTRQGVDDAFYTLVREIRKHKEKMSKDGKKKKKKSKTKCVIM
KRAS G13D, sequence (P62937 whole entry): as the sequence (P62937 whole entry) above
KRAS G12V, sequence (P01116 other isoform, or with tags, fused parts or gaps G12V): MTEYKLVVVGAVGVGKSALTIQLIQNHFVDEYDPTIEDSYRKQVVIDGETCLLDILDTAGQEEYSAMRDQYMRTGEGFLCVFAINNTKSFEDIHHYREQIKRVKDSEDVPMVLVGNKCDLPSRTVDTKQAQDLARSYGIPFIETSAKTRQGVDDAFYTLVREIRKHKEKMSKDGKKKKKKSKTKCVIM
KRAS G12V, sequence (P62937 whole entry): as the sequence (P62937 whole entry) above
KRAS G12D, sequence (P01116 other isoform, or with tags, fused parts or gaps G12D): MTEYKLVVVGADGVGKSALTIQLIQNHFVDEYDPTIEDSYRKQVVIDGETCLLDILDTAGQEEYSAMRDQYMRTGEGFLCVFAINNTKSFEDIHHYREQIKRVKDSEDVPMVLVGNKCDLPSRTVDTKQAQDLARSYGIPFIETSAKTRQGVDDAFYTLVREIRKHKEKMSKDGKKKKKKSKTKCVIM
KRAS G12D, sequence (P62937 whole entry): as the sequence (P62937 whole entry) above

Structure (SMILES) | EC50 [1] [nM] | IC50 ([2]; K-Ras G12V, 5-day treatment) [nM] | IC50 [3] [nM] | IC50 [4] [nM] | IC50 [5] [nM] | IC50 [6] [nM] | IC50 [7] [nM] | IC50 [8] [nM] | IC50 [9] [nM] | IC50 [10] [nM] | IC50 [11] [nM] | IC50 [12] [nM] | IC50 [13] [nM] | IC50 ([14]; K-Ras G12C, 5-day treatment) [nM] | IC50 [2] [nM] | IC50 [14] [nM]
CCn1c(-c2cccnc2[C@H](C)OC)c2c3cc(ccc31)-c1csc(n1)C[C@H](NC(=O)[C@H](C(C)C)N(C)C(=O)N1CCCC[C@H](N(C)C)C1)C(=O)N1CCC[C@H](N1)C(=O)OCC(C)(C)C2 [Compound A491] | < 5000 | 10 to 100 | 100 to 1000 | 10 to 100 | 10 to 100 | 10 to 100 | 100 to 1000 | 100 to 1000 | 10 to 100 | 100 to 1000 | 100 to 1000 | 10 to 100 | 10 to 100 | 10 to 100 | – | –
CCn1c(-c2cccnc2[C@H](C)OC)c2c3cc(ccc31)-c1csc(n1)C[C@H](NC(=O)[C@H](C(C)C)N(C)C(=O)N1CC3(CC(N(C)C4COC4)C3)C1)C(=O)N1CCC[C@H](N1)C(=O)OCC(C)(C)C2 [Compound A511] | < 5000 | 10 to 100 | 100 to 1000 | 100 to 1000 | 100 to 1000 | 100 to 1000 | 100 to 1000 | 1000 to 10000 | 100 to 1000 | 100 to 1000 | 1000 to 10000 | 100 to 1000 | 100 to 1000 | 10 to 100 | – | –
CCn1c(-c2cccnc2[C@H](C)OC)c2c3cc(ccc31)-c1csc(n1)C[C@H](NC(=O)[C@H](C(C)C)N(C)C(=O)N1CCC[C@H](N(C)C)C1)C(=O)N1CCC[C@H](N1)C(=O)OCC(C)(C)C2 [Compound A569] | – | – | 100 to 1000 | 10 to 100 | 100 to 1000 | 10 to 100 | 100 to 1000 | 100 to 1000 | 100 to 1000 | 100 to 1000 | 100 to 1000 | 10 to 100 | 10 to 100 | – | 10 to 100 | 10 to 100
CCn1c(-c2cccnc2[C@H](C)OC)c2c3cc(ccc31)-c1csc(n1)C[C@H](NC(=O)[C@H](C(C)C)N(C)C(=O)N1CC3(CC(N(C)C(C)C)C3)C1)C(=O)N1CCC[C@H](N1)C(=O)OCC(C)(C)C2 [Compound A485] | – | 10 to 100 | 100 to 1000 | 10 to 100 | 100 to 1000 | 100 to 1000 | 100 to 1000 | 100 to 1000 | 100 to 1000 | 100 to 1000 | 100 to 1000 | 100 to 1000 | 100 to 1000 | 10 to 100 | – | –
CCn1c(-c2cccnc2[C@H](C)OC)c2c3cc(ccc31)-c1cc(O)cc(c1)C[C@H](NC(=O)[C@H](C(C)C)N(C)C(=O)[C@H]1CCC(=O)O1)C(=O)N1CCC[C@H](N1)C(=O)OCC(C)(C)C2 [Compound A405] | – | 1000 to 10000 | 100 to 1000 | 10 to 100 | 10 to 100 | 10 to 100 | 10 to 100 | 100 to 1000 | 10 to 100 | 10 to 100 | 10 to 100 | 10 to 100 | 10 to 100 | 1000 to 10000 | – | –
CCn1c(-c2cccnc2[C@H](C)OC)c2c3cc(ccc31)-c1csc(n1)C[C@H](NC(=O)[C@H](C(C)C)N(C)C(=O)N1CC3(CC(NCCOC)C3)C1)C(=O)N1CCC[C@H](N1)C(=O)OCC(C)(C)C2 [Compound A512] | – | 10 to 100 | 100 to 1000 | 100 to 1000 | 100 to 1000 | 100 to 1000 | 100 to 1000 | 1000 to 10000 | 100 to 1000 | 100 to 1000 | 100 to 1000 | 100 to 1000 | 100 to 1000 | 10 to 100 | – | –
CCn1c(-c2cccnc2[C@H](C)OC)c2c3cc(ccc31)-c1csc(n1)C[C@H](NC(=O)[C@H](C(C)C)N(C)C(=O)N(C)CCc1ccncc1)C(=O)N1CCC[C@H](N1)C(=O)OCC(C)(C)C2 [Compound A557] | – | 100 to 1000 | 100 to 1000 | 10 to 100 | 100 to 1000 | 10 to 100 | 100 to 1000 | 100 to 1000 | 100 to 1000 | 100 to 1000 | 100 to 1000 | 100 to 1000 | 10 to 100 | 10 to 100 | – | –
CCn1c(-c2cccnc2[C@H](C)OC)c2c3cc(ccc31)-c1csc(n1)C[C@H](NC(=O)[C@H](C(C)C)N(C)C(=O)N(C)C1COC1)C(=O)N1CCC[C@H](N1)C(=O)OCC(C)(C)C2 [Compound A334] | – | 10 to 100 | 100 to 1000 | 10 to 100 | 100 to 1000 | 10 to 100 | 100 to 1000 | 100 to 1000 | 100 to 1000 | 100 to 1000 | 100 to 1000 | 100 to 1000 | 10 to 100 | 10 to 100 | – | –
CCn1c(-c2cccnc2[C@H](C)OC)c2c3cc(ccc31)-c1csc(n1)C[C@H](NC(=O)[C@H](C(C)C)N(C)C(=O)N1CC(CN(C)C)C1)C(=O)N1CCC[C@H](N1)C(=O)OCC(C)(C)C2 [Compound A576] | – | 10 to 100 | 100 to 1000 | 100 to 1000 | 100 to 1000 | 10 to 100 | 100 to 1000 | 100 to 1000 | 100 to 1000 | 100 to 1000 | 100 to 1000 | 100 to 1000 | 10 to 100 | 10 to 100 | – | –
CCn1c(-c2cccnc2[C@H](C)OC)c2c3cc(ccc31)-c1csc(n1)C[C@H](NC(=O)[C@H](C(C)C)N(C)C(=O)N1CCO[C@@H](CN(C)C)C1)C(=O)N1CCC[C@H](N1)C(=O)OCC(C)(C)C2 [Compound A591] | – | 10 to 100 | 100 to 1000 | 10 to 100 | 100 to 1000 | 10 to 100 | 100 to 1000 | 100 to 1000 | 100 to 1000 | 100 to 1000 | 100 to 1000 | 10 to 100 | 10 to 100 | 10 to 100 | – | –
